These compounds were tested against CB1 receptor (Homo sapiens, UniProt P21554) (assay: CB1 cAMP Antagonist Assay (LANCE Ultra cAMP kit)). Settings: Flp-In CHO cells stably expressing the CB1 receptor; forskolin and CP55940 agonist at EC90; cAMP FRET readout.
Type: cell-based
From the text: CB1 cAMP Antagonist Assay
LANCE Ultra cAMP kit (Perkin Elmer) was used to quantitate the amount of 3′,5′-cyclic adenosine monophosphate (cAMP) produced in Flp-In CHO (Invitrogen) cells stably expressing the CB1 receptor.
Forskolin was initially titrated to determine the response of the cells. The EC90 of forskolin was used for compound testing. CP55940 was titrated and used with EC90 of forskolin to determine the level of agonist stimulation. EC90 of the agonist was used for subsequent compound testing.
Forskolin (Sigma), CP55940 (Cayman Chemicals), and AM251 (MCE) were diluted in 100% DMSO, starting at 100 mM, 1 mM, and 1 mM respectively, in 3-fold serial dilutions. Test compounds were diluted in 100% DMSO starting from 10 mM, 3-fold dilutions. The cAMP assay buffer contains 1x Hank’s Buffered Saline Solution with Ca^2+ and Mg^2+ (Invitrogen), 5.3 mM HEPES (Invitrogen), 0.05% BSA, 0.5 mM IBMX (Sigma).
For all assays, cells were harvested, counted, and diluted in cAMP assay buffer to 1× 10^5 cells/mL. Only cells with viability >85% were used for the assay. Cells were seeded at 1000 cells/well in 384-well plates and 10 nL/well AM251 or test compound was added and incubated at 37° C. for 10 min. […] To detect the amount of cAMP produced, 5 µL of a 100x diluted stock of Eu-cAMP tracer and 5 µL of 200x diluted stock of Ulight-anti-cAMP were added to each well, and the plate incubated at 25° C. for 15 min. The FRET signal was read using an EnVision microplate reader (λex=320 nm, λem=615 nm and 665 nm).
The IC50 is determined by fitting the percentage of inhibition as a function of compound concentrations with the Hill equation, using a 4-parameter fit in either XLfit or GraphPad Prism.

Chain of CB1 receptor (P21554 whole entry): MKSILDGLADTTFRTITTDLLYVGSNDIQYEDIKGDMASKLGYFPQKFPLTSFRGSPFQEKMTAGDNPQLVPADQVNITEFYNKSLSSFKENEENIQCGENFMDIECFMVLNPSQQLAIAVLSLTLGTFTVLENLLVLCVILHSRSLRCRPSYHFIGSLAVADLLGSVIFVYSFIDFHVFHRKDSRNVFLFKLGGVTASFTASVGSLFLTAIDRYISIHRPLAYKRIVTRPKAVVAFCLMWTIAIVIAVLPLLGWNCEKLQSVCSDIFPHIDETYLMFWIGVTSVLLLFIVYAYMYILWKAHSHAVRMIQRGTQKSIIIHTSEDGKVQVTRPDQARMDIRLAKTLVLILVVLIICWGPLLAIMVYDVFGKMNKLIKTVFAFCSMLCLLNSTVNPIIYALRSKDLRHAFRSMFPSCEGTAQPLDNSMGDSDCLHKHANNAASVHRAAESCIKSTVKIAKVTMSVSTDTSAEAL

IC50 [nM]	Compound
100 to 1000	Cn1c(N2C[C@H](c3ccccc3)C(c3ccc(Cl)cc3)=N2)nn(CCc2ccc(C(=O)NCCO)cc2)c1=O [Compound 200]
1000 to 5000	NC(=O)Cn1c(N2C[C@@]3(CCc4ccccc43)C(c3ccc(Cl)cc3)=N2)nn(CC2CCCCC2)c1=O [Compound 147, 2-[3-[(1S)-3-(4-chlorophenyl)-1,2,3,5-tetrahydrospiro[indene-1,4-pyrazol]-1-y1]-1-(cyclohexylmethyl)-5-oxo-4,5-dihydro-1H-1,2,4-triazol-4-yl]acetamide]
1000 to 5000	COc1ccc(Cn2nc(N3C[C@@H](c4ccccc4)C(c4ccc(Cl)cc4)=N3)n(C)c2=O)cc1 [Compound 142]
> 5000	NC(=O)CCn1c(N2C[C@@]3(CCc4ccccc43)C(c3ccc(Cl)cc3)=N2)nn(-c2ccc(Cl)cc2)c1=O [Compound 128]
> 5000	C[C@@H](C(N)=O)n1c(N2C[C@H](c3ccccc3)C(c3ccc(Cl)cc3)=N2)n[nH]c1=O [Compound 203, (2S)-2-[3-[(4S)-3-(4-chlorophenyl)-4-phenyl-4,5-dihydropyrazol-1-yl]-5-oxo-1H-1,2,4-triazol-4-yl]propanamide]
100 to 1000	O=c1n(-c2ccc(Cl)cc2)nc(N2C[C@]3(CCc4ccccc43)C(c3ccc(Cl)cc3)=N2)n1CCO [Compound 114, 1-(4-chlorophenyl)-3-[(1R)-3-(4-chlorophenyl)-1,2,3,5-tetrahydrospiro[indene-1,4-pyrazol]-1-yl]-4-(2-hydroxyethyl)-4,5-dihydro-1H-1,2,4-triazol-5-one]
1000 to 5000	C[C@@H](C(N)=O)n1c(N2C[C@@H](c3ccccc3)C(c3ccc(Cl)cc3)=N2)nn(Cc2ccc(CN3CCOCC3)cc2)c1=O [Compound 159]
> 5000	O=c1[nH]nc(N2C[C@@H](c3ccccc3)C(c3ccc(Cl)cc3)=N2)[nH]1 [Compound 208, 5-[(4R)-3-(4-chlorophenyl)-4-phenyl-4,5-dihydropyrazol-1-yl]-2,4-dihydro-1,2,4-triazol-3-one]
100 to 1000	O=c1n(Cc2ccc(Cl)cc2)nc(N2CC3(CCc4ccccc43)C(c3ccc(Cl)cc3)=N2)n1CCO (stereo in doubt) [Compound 121, 3-[(1S)-3-(4-chlorophenyl)-1,2,3,5-tetrahydrospiro[indene-1,4-pyrazol]-1-yl]-1-[(4-chlorophenyl)methyl]-4-(2-hydroxyethyl)-4,5-dihydro-1H-1,2,4-triazol-5-one]
> 5000	C[C@H](C(N)=O)n1c(N2C[C@H](c3ccccc3)C(c3ccc(Cl)cc3)=N2)n[nH]c1=O [Compound 206]
< 100	C[C@@H](C(N)=O)n1c(N2C[C@H](c3ccccc3)C(c3ccc(Cl)cc3)=N2)nn(Cc2ccc(Cl)cc2)c1=O [Compound 176]
< 100	Cn1c(N2CC(c3ccccc3)C(c3ccc(Cl)cc3)=N2)nn(Cc2ccccc2Cl)c1=O (centres unmarked) [Compound 171]
100 to 1000	Cc1ccc(Cn2nc(N3CC(c4ccccc4)C(c4ccc(Cl)cc4)=N3)n(C)c2=O)cn1 (centres unmarked) [Compound 183]
< 100	NC(=O)Cn1c(N2C[C@@H](c3ccccc3)C(c3ccc(Cl)cc3)=N2)nn(-c2ccc(Cl)cc2)c1=O [Compound 108, 2-[1-(4-chlorophenyl)-3-[(4R)-3-(4-chlorophenyl)-4-phenyl-4,5-dihydro-1H-pyrazol-1-yl]-5-oxo-4,5-dihydro-1H-1 ,2,4-triazol-4-yl]acetamide]
100 to 1000	COc1ccc(Cn2nc(N3CC(c4ccccc4)C(c4ccc(Cl)cc4)=N3)n([C@H](C)C(N)=O)c2=O)cc1OC (stereo partly drawn) [Compound 197, (2R)-2-[3-[3-(4-chlorophenyl)-4-phenyl-4,5-dihydropyrazol-1-yl]-1-[(3,4-dimethoxyphenyl)methyl]-5-oxo-1,2,4-triazol-4-yl]propanamide]
< 100	Cn1c(N2C[C@@H](c3ccccc3)C(c3ccc(Cl)cc3)=N2)nn(Cc2ccc(Cl)cc2)c1=O [Compound 103]
> 5000	CN1CCN(Cc2ccc(Cn3nc(N4C[C@H](c5ccccc5)C(c5ccc(Cl)cc5)=N4)n(CC(N)=O)c3=O)cc2)CC1 [Compound 149]
> 5000	O=C(O)CCn1c(N2C[C@]3(CCc4ccccc43)C(c3ccc(Cl)cc3)=N2)nn(-c2ccc(Cl)cc2)c1=O [Compound 129]
< 100	C[C@H](C(N)=O)n1c(N2C[C@H](c3ccccc3)C(c3ccc(Cl)cc3)=N2)nn(Cc2ccc(Cl)cc2)c1=O [Compound 174]
< 100	Cc1cc(Cn2nc(N3CC(c4ccccc4)C(c4ccc(Cl)cc4)=N3)n(C)c2=O)ccc1Cl (centres unmarked) [Compound 178]
100 to 1000	C[C@@H](C(N)=O)n1c(N2C[C@@H](c3ccccc3)C(c3ccc(Cl)cc3)=N2)nn(Cc2ccc(Cl)cn2)c1=O [Compound 201]
100 to 1000	Cn1c(N2CC3(CCc4ccccc43)C(c3ccc(Cl)cc3)=N2)nn(CC2CCCCC2)c1=O (stereo in doubt) [Compound 139, 3-[(1S)-3-(4-chlorophenyl)-1,2,3,5-tetrahydrospiro[indene-1,4-pyrazol]-1-yl]-1-(cyclohexylmethyl)-4-methyl-4,5-dihydro-1H-1,2,4-triazol-5-one]
100 to 1000	Cn1c(N2C[C@H](c3ccccc3)C(c3ccc(Cl)cc3)=N2)nn(-c2ccc(CN3CCOCC3)cc2)c1=O [Compound 144, 3-[(4S)(4-Chlorophenyl)-4-Phenyl-4,5-Dihydro-1H-Pyrazol-1-yl]-4-Methyl-1-[4-[(Morpholin-4-yl)Methyl] Phenyl]-4,5-Dihydro-1H-1,2,4-Triazol-5-One]
1000 to 5000	Cn1c(N2C[C@]3(CCc4ccccc43)C(c3ccc(Cl)cc3)=N2)nn(Cc2ccc(Cl)cc2)c1=O [Compound 115, 3-[(1R)-3-(4-chlorophenyl)-1,2,3,5-tetrahydrospiro[indene-1,4-pyrazol]-1-y1]-1-[(4-chlorophenyl)methyl]-4-methyl-4,5-dihydro-1H-1,2,4-triazol-5-one]
> 5000	C[C@@H](C(N)=O)n1c(N2C[C@@H](c3ccccc3)C(c3ccc(Cl)cc3)=N2)n[nH]c1=O [Compound 209, (2S)-2-[3-[(4R)-3-(4-chlorophenyl)-4-phenyl-4,5-dihydropyrazol-1-yl]-5-oxo-1H-1,2,4-triazol-4-yl]propanamide]
> 5000	C[C@@H](C(N)=O)n1c(N2C[C@@H](c3ccccc3)C(c3ccc(Cl)cc3)=N2)nn(Cc2ccc(Cl)cc2)c1=O [Compound 179]

Compound	IC50 [nM]
CC(C(N)=O)n1c(N2CC(c3ccccc3)C(c3ccc(Cl)cc3)=N2)nn(CC2CCCCC2)c1=O (centres unmarked) [Compound 158, 2-[3-[3-(4-chlorophenyl)-4-phenyl-4,5-dihydropyrazol-1-yl]-1-(cyclohexylmethyl)-5-oxo-1,2,4-triazol-4-yl]propanamide]	< 100
Cn1c(N2C[C@@H](c3ccccc3)C(c3ccc(Cl)cc3)=N2)nn(-c2ccc(Cl)cc2)c1=O [Compound 100]	> 5000
Cn1c(N2C[C@H](c3ccccc3)C(c3ccc(Cl)cc3)=N2)nn(Cc2ccccc2)c1=O [Compound 169]	< 100
